Test results as given in patent publication US20250002450A1, “CATIONIC STEROID COMPOUNDS, METHOD OF OBTAINING THEREOF, FORMULATIONS COMPRISING THEREOF AND THEIR USES” (UNIVERSIDADE DO PORTO, priority 2021, published 2025).
Values after ≈ are worked out from the molar mass of the structure shown. Where two headings read alike, the source gives them in different places.

Tests used:
[1] = tested on: Candida albicans ATCC 10231; assay: Antifungal MIC/MLC (broth microdilution); format: cell-based
Description: (§1) Twenty-three fungal strains were used in this study, including reference strains and clinical isolates of yeasts and filamentous fungi. Yeast strains included reference strains (ATCC—American Type Culture Collection and CECT—Colección Española de Cultivos Tipo) and clinical isolates: C. albicans ATCC 10231, Candida krusei ATCC 6258, C. albicans H37, C. albicans FF172, C. albicans FF176, C. albicans DSY294, C. albicans DSY296, C. glabrata DSY562, C. glabrata DSY565 and Cryptococcus neoformans CECT 1078. Filamentous fungi included Aspergillus fumigatus ATCC 240305, A. fumigatus C111, A. niger ATCC 16404, A. flavus F44, Fusarium solani FF125, F. oxysporum FF115, and dermatophytes Trichophyton rubrum FF5, T. mentagrophytes FF7, Microscoporum canis FF1 and Nannizzia gypsea FF3 (formerly Microsporum gypseum) and a species of genera Mucor, Lichetheimia and Scedosporium. Saprolegnia parasitica CBS 223.65, a reference strain of an oomycete fish pathogen, was also included. All microorganisms were kept in Sabouraud Dextrose Broth (SDB: BioMérieux, Marcy L'Etoile, France) plus glycerol (20%) at −80° C. The strains were kept in Sabouraud Dextrose Agar (SDA: BioMérieux, Marcy L'Etoile, France) slants and were sub-cultured in SDA before each test. S. parasitica was kept in Corn Meal Agar plates (CMA: BBL™ Corn Meal Agar, BD, Le Pont-de-Claix, France) and was sub-cultured in CMA before each experiment. C. albicans H37, was kindly provided by Cidilia Pina Vaz (CHSJ, Porto, Portugal) and C. albicans DSY294, C. albicans DSY296, C. glabrata DSY562, C. glabrata DSY565 were kindly provided by D. Sanglard (University of Lausanne, Switzerland). A stock solution of compound 1 (10 mg/mL), was prepared in dimethyl sulfoxide (DMSO 99%: Alfa Aesar, Kandel, Germany), kept at −20 degrees C., and freshly diluted in the appropriate culture media before each assay. In all experiments, in-test concentrations of DMSO were kept below 2%.
(§2) Antifungal activity was evaluated by determining the MIC of compound 1 by the broth microdilution method, according to CLSI guidelines (reference documents M27-A3 for yeasts and M38-A2 for filamentous fungi). Briefly, cell or spore suspensions were prepared in RPMI-1640 broth medium (Biochrom, Berlin, Germany) buffered with 3-(N-morpholino)propane sulfonic acid (MOPS) (Sigma-Aldrich, St. Louis, MO, USA) (henceforth referred to as RPMI) from fresh cultures of the different strains of fungi. For yeasts, the inoculum was adjusted to 0.5-2.5×10^3 CFU/mL. For filamentous fungi, the inoculum was adjusted to 1-3×10^3 CFU/mL for dermatophytes, and 0.4-5×10^4 CFU/mL for all other strains. […] Sterility and growth controls were included in each assay. The 96-well flat-bottomed untreated polystyrene microtiter plates which were incubated for 48 h at 35° C., with the exception of Lichetheimia spp. which was incubated at 25° C. for 48 h, and the dermatophyte strains, which incubated for 5-7 days at 25° C. […] The minimal lethal concentration (MLC) was determined by spreading 20 μL of culture collected from wells showing no visible growth on SDA plates. The MLC was determined as the lowest concentration showing complete growth inhibition after 48 h at 35 degrees C., 48 h at 25 degrees C.

Microsporum canis FF1 = assay: Antifungal MIC/MLC (broth microdilution); format: cell-based
Description: as §1, §2

Nannizzia gypsea FF3 = assay: Antifungal MIC/MLC (broth microdilution); format: cell-based
Description: as §1, §2

Trichophyton rubrum FF5 = assay: Antifungal MIC/MLC (broth microdilution); format: cell-based
Description: as §1, §2

C. albicans FF172 = assay: Antifungal MIC/MLC (broth microdilution); format: cell-based, Candida albicans
Description: as §1, §2

C. albicans ATCC 10231 [2] = assay: Potassium ion efflux analysis; format: cell-based, Candida albicans; settings: 5 min
Protocol: In an embodiment, the potassium ion (K^+) efflux analysis was performed as follows ([FIG. 9]). Leakage of potassium ions is a common response to membrane-disrupting agents; therefore, extracellular K^+ was quantified by flame atomic absorption spectrometry, after 5 min of exposure to compound 1 ([FIG. 10]). […] Efflux of potassium was determined by quantification of extracellular K^+ by flame atomic absorption spectrometry. Cell suspensions of C. albicans ATCC 10231 were prepared in the same manner as described for PI influx assay, and test conditions were also the same. After 5 min of exposure, cells were centrifuged for 10 min at 3500 rpm and the supernatants were filtrated using a cellulose acetate syringe filter with a 0.22 µm pore size. Samples were analyzed with a AAnalyst 200 Atomic Absorption Spectrometer (Perkin Elmer). Four independent assays were performed and the data are presented as percentage of control (untreated cells as […] of K^+).

C. albicans ATCC 10231 [3] = assay: Mitochondrial dehydrogenases activity, MTT reduction assay; format: cell-based, Candida albicans; settings: 2 h
Protocol: In order to determine whether compound 1 could also affect mitochondrial function, MTT reduction assay was performed. In this assay, tetrazolium salts are reduced to purple formazan derivatives by mitochondrial dehydrogenases, which can be measured spectrophotometrically and reported to mitochondrial activity and, indirectly, to cell viability. In this assay, cells were exposed to the test compounds for 2 h ([FIG. 11]). […] An increase in reactive oxygen species (ROS) has been linked to azoles activity: even though their primary mode of action is the inhibition of ergosterol synthesis, they also induce accumulation of ROS, which enhances their antifungal activity and translates into an increase in mitochondrial activity at inhibitory concentrations. […] Mitochondrial dehydrogenase activity was evaluated by the MTT assay, as previously described, with some modifications. Cell suspensions of C. albicans ATCC 10231 were prepared in the same manner as described above and, after overnight incubation at 36° C., were centrifuged at 3500 rpm for 15 min, the supernatant was removed, and the cells were carefully resuspended in 2 mL of RPMI. Test conditions and controls were the same as described above, but the time of exposure to the test compounds was 2 h. After the exposure time, cell suspensions were centrifuged at 3500 rpm for 10 min, the supernatant was removed, and 500 μL of MTT solution (0.5 mg/mL in RPMI, at 35° C.) (Thiazolyl Blue Tetrazolium Bromide, Alfa Aesar, Ward Hill, MA, USA) were added. After a 1 h incubation at 35° C., the insoluble formazan product resulting from the conversion of MTT by mitochondrial dehydrogenases of metabolically active cells was solubilized with 300 μL of DMSO. 100 μL of each sample were transferred in duplicate to a microtiter plate and the extent of the reduction of MTT to formazan was quantified by measuring the absorbance at 570 nm. Three independent assays were performed in duplicate, and the results are expressed as percentage of MTT reduction, using the untreated cells as control.

[4] = 128, 64, and 32 μg/mL (2×MIC, MIC, ½×MIC)

SMILES	MIC ([1]; ATCC10231, read-out: MIC)	MIC (Microsporum canis FF1; read-out: MIC)	MIC (Nannizzia gypsea FF3; read-out: MIC)	MIC (Trichophyton rubrum FF5; read-out: MIC)	MIC (C. albicans FF172; Candida albicans, read-out: MIC)	levels of extracellular K+ vs untreated control (C. albicans ATCC 10231 [2]; 8 μg/mL)	mitochondrial activity (MTT reduction) vs untreated control (C. albicans ATCC 10231 [3]; 8 μg/mL)	MIC [1]	MLC [1]	MIC (Microsporum canis FF1)	MLC (Microsporum canis FF1)	MIC (Nannizzia gypsea FF3)	MLC (Nannizzia gypsea FF3)	MIC (Trichophyton rubrum FF5)	MLC (Trichophyton rubrum FF5)	MIC (C. albicans FF172)	MLC (C. albicans FF172)	levels of extracellular K+ vs untreated control (C. albicans ATCC 10231 [2]; [4])	mitochondrial activity (MTT reduction) vs untreated control (C. albicans ATCC 10231 [3]; [4])
OC(Cn1cncn1)(Cn1cncn1)c1ccc(F)cc1F [Fluconazole, reference compound]	2 µg/mL (≈ 6.53 µM)	32 µg/mL (≈ 104 µM)	32 µg/mL (≈ 104 µM)	16 µg/mL (≈ 52.2 µM)	0.25 µg/mL (≈ 0.816 µM)	not	increase (non-significant)	–	–	–	–	–	–	–	–	–	–	–	–
C[C@H](CCC(=O)NCCN)[C@H]1CC[C@H]2[C@@H]3CC[C@@H]4C[C@H](O)CC[C@]4(C)[C@H]3C[C@H](O)[C@]12C [Compound 1, (R)—N-(2-aminoethyl)-4-((3R,5R,8R,9S,10S,12S,13R,14S,17R)-3,12-dihydroxy-10,13-dimethylhexadecahydro-1H-cyclopenta[a]phenanthren-17-yl) pentanamida]	–	–	–	–	–	–	–	64 µg/mL (≈ 147 µM)	64 µg/mL (≈ 147 µM)	64 µg/mL (≈ 147 µM)	128 µg/mL (≈ 294 µM)	32 µg/mL (≈ 73.6 µM)	32 µg/mL (≈ 73.6 µM)	32 µg/mL (≈ 73.6 µM)	64 µg/mL (≈ 147 µM)	64 µg/mL (≈ 147 µM)	64 µg/mL (≈ 147 µM)	significant levels of extracellular K	significant reduction of mitochondrial activity
